US6117976A, “Manufacture and use of polypeptides tagged using binding molecules” (Medical Research Council, priority 1993, dated 2000)
“Also recorded” adds a separate entry of the source. Like-named read-outs stand apart in the source and are kept apart here. No end group written: not given here.

How the values were obtained:
[1] = target: T1, calmodulin (Homo sapiens, UniProt P0DP23); experiment: Native gel autoradiography of 2-[125I]-melatonin with calmodulin; format: binding; conditions: 1 μCi 2-[125I]-melatonin, 15% polyacrylamide gel, 0.5 mM CaCl2, no SDS
Description: In order to assess this, 1 μl calmodulin (1 mg/ml) was incubated with 1 μCi 2-[^125 I]-melatonin in 9 μl TBSC and run on a 15% polyacrylamide gel. The gel was as the running gel of Laemmli (Nature 1970 220 680-685), but with 0.5 mM CaCl2 and no SDS in both gel and buffer.

[2] = target: T1, calmodulin; experiment: Native gel electrophoresis of fluoresceinated TAG peptides with calmodulin; format: binding; conditions: excess calmodulin, TBS 1 mM CaCl2, 15% native gel
Excerpt: FIGS. 9A and 9B: Fluorescent and Coomassie blue detection of fluorescent peptide/calmodulin complexes. Native gel electrophoresis of calmodulin and fluoresceinated TAG1 (Track 1), calmodulin and fluoresceinated TAG2 (Track 2), calmodulin and fluoresceinated TAG3 (Track 3), and calmodulin and fluoresceinated TAG4 (Track 4). The gel was first imaged on a UV transilluminator and photographed (FIG. 9A) and then stained with Coomassie blue and photographed (FIG. 9B).
For peptide fluoresceination, 1 mg of each peptide was dissolved in 1 ml of 100 mM NaHCO3, pH 8.9. One volume of peptide was mixed with one volume of water and 2 volumes of 2 mM iodoacetamidofluorescein (Molecular Probes Inc.) in dimethylformamide. The reaction was allowed to proceed for 15 minutes then quenched by adding dithiothreitol to 10 mM final concentration. The fluoresceinated peptides were separated from unreacted fluorescein using a Millipore MEM-SEP cartridge column (TBS=loading and wash buffer; TBS+0.5 M NaCl=elution buffer).
A 20 μl reaction was set up containing ca. 0.4 μg of fluoresceinated peptide and 18 μg of calmodulin (Sigma) in TBS containing 1 mM CaCl2 (TBS is 50 mM Tris-HCl, pH 7.4, 100 mM NaCl in water).

[3] = target: T1, calmodulin; conditions: 600 nM calmodulin, 50 nM fluorescein-labeled TAG3, 7 μM unlabelled peptide, on ice, up to 4 hrs
Description: 600 nM calmodulin was pre-mixed in TBSC and 10% sucrose with 50 nM fluorescein-labeled TAG3 peptide. Aliquots were incubated on ice with a large excess (7 μM) unlabeled peptide for 0, 0.5, 1, 2, and 4 hrs, and analysed on a native 15% polyacrylamide gel (as in Laemmli, 1970 supra except with CaCl2 to 1 MM) in a Hoefer Mighty Small apparatus, and imaged with a cooled CCD-camera based fluorescent gel imaging system developed in collaboration with Confocal Technologies (Liverpool, UK) and Digital Pixel (Brighton, UK).
600 nM calmodulin was pre-mixed in TBSC and 10% sucrose with 50 nM fluorescein-labeled TAG3 peptide. Aliquots were incubated on ice with a large excess (7 μM) unlabelled peptide for 0, 0.5, 1, 2, and 4 hrs, and analysed on a native 15% polyacrylamide gel (as in Carr & Scott, 1992 supra) except with CaCl2 to 1 mM) in a Hoefer Mighty Small apparatus, and imaged with a cooled CCD-camera based fluorescent gel imaging system developed in collaboration with Confocal Technologies (Liverpool, UK) and Digital Pixel (Brighton, UK).

[4] = target: T1, calmodulin; conditions: cited from earlier work
[5] = tested on: scFv(HyHEL-10)-CAL; experiment: Native Phast gel analysis of scFv(HyHEL-10)-CAL and MBP-TAG1 interaction; format: binding
Description: FIG. 8B: Homogeneous 20 Native Phast Gel (Pharmacia) for the analysis of scFv(HyHEL-10)-CAL and MBP-TAG1 interaction. Conditions as in FIG. 5, except the gel was stained with Coomassie. Lanes: 1, MBP-TAG1 (0.3 mg/ml); 2, scFv (HyHEL-10)-CAL (0.08 mg/ml); 3, scFv (HyHEL-10) (0.08 mg/ml)+MBP-TAG1 (0.3 mg/ml).
(§1) 2500 resonance units (RUs) of turkey egg lysozyme (TEL) (Sigma) were immobilised on a microsensor chip of a BIAcore machine (Pharmacia). A solution of […] (5 μg/ml) in TBSC was injected onto the chip (flow rate 5 μl/min), followed by injections of MBP-TAG1 (5 μg/ml), then 20 mM EGTA (to dissociate the complex) and then MBP (New England Biolabs 5 μg/ml). […] Conditions were as in Example 7 and FIG. 5, except the gel was stained with Coomassie. Lanes: 1, MBP-TAG1 (0.3 mg/ml); 2, scFv (HyHEL10)-CAL (0.08 mg/ml); 3, scFv (HyHEL-10) (0.08 mg/ml)+MBP-TAG1 (0.3 mg/ml).

[6] = tested on: scFv(HyHEL-10)-CAL; format: binding
Description: FIG. 8A: Binding of scFv-CAL and MBP-TAG1 detected by surface plasmon resonance (Pharmacia Biacore). 2500 resonance units (RUs) of turkey egg lysozyme (TEL) (Sigma) were immobilized on a microsensor chip of a BIAcore machine (Pharmacia). A solution of […] (5 μg/ml) in TBSC was injected onto the chip (flow rate 5 μl/min), followed by injections of MBP-TAG1 (5 μg/ml), then 20 mM EGTA (to dissociate the complex) and then MBP (New England Biolabs 5 μg/ml).
Thus HEL was immobilised on the microsensor chip, and the chip saturated with scFv(HyHEL-10)-CAL.
as §1

[7] = tested on: fluoresceinated TAG-3 peptide; experiment: Band shift assay of alternative fusion partners with fluoresceinated TAG-3 peptide; format: binding; conditions: 10 μM fluoresceinated TAG-3, TBSC, High-Density Phast Gel, native
Description: 1 μl of purified scFv (D1.3)-CAL (Example 5), scFv(D1.3)-CAL(N-domain), scFv(D1.3)-CAL(C-domain), calmodulin or troponin C were incubated with 10 μM fluoresceinated TAG-3 peptide and 8 μl TBSC. The samples were run on a High-Density Phast Gel (Pharmacia) using native buffer strips, and gel imaged.

[8] = in vivo; cited from earlier work
[9] = Table 1, affinities of calmodulin-binding peptides

In the case of `COc1ccc2[nH]c([125I])c(CCNC(C)=O)c2c1` [2-[^125 I]-melatonin], the “detection of calmodulin-melatonin complex on gel (radioactive band)” value [1] is reported as “no radioactive band was detected”.

For `COc1ccc2[nH]cc(CCNC(C)=O)c2c1` [Melatonin, melatonin], the “detection of calmodulin-melatonin complex on gel (radioactive band)” value [1] was “no complex is detected on band shift assays”.

In the case of C-EIKRAAA-INLKALAALAKKIL-IK-OH [TAG 4], the “peptide-calmodulin complex formation (comigration of fluorescent and coomassie bands)” value (from here on “peptide-calmodulin complex formation”) [2] is reported as “stable complex with calmodulin”.

In the case of “C-EIKRAAA-INLKALAALAKKIL-IKRKRQQ-NH2 [TAG 3]”, the “peptide-calmodulin complex formation” value [2] is reported as “the upper of these that has bound peptide” and the “displacement of fluorescent peptide from calmodulin by unlabelled peptide” value [3] is reported as “not significantly displaced from the calmodulin even after four hours competition”.

With “C-EIKRAAA-INLKALAALAKKIL-NH2 (CEIKRAAAINLKALAALAKKIL-NH2) [TAG 1]” the “peptide-calmodulin complex formation” value [2] was “stable complex with calmodulin”.

With C-EIKRAAA-INLKALAALAKKIL-OH [TAG 2] the “peptide-calmodulin complex formation” value [2] was “stable complex with calmodulin”.

In the case of “IKPAKRMKFKTVCYLLVQLMHCRKMFKA-NH2 [AC-28]”, the Kd [4, 9] is given as 2 nM.

For INLKALAALAKKIL-NH2 [Mastoparan], the Kd [4, 9] is listed as 0.3 nM, the Ka ([4]; association constant for calmodulin) is listed as 3.3e+09 M⁻¹ and the Kd ([4]; binding to calmodulin, Malencik and Anderson, 1983) is listed as 0.3 nM.

For “KRRAIGFKKLAEAVKFSAKLMGQAMAKRVK-NH2 [NO-30]”, the Kd [4, 9] is listed as 2 nM.

In the case of “MBP-TAG1: maltose binding protein with the TAG1 peptide appended at the C-terminus (CEIKRAAAINLKALAALAKKIL)”, the “stable complex with scFv calmodulin fusion by gel electrophoresis” value [5] is reported as “form a stable complex”, the “binding to chip saturated with scFv(HyHEL-10)-CAL” value ([6]; 5 μg/ml in TBSC) is reported as “shown to bind to the chip” and the “dissociation of bound protein by EGTA” value ([6]; 20 mM EGTA) is reported as “could be dissociated by addition of EGTA”.

In the case of “QILWFRGLNRIQTQIRVVNAFRSS-NH2 [Ca++ pump]”, the Kd [4, 9] is listed as 10 nM.

For calmodulin, the “complex formation with TAG-3 (fluorescent band)” value [7] is given as “observed”, the excretion [8] is given as “rapidly excreted in the urine” and the immunogenicity [8] is given as “poorly immunogenic”. The organ accumulation [8] was “does not accumulate selectively in any organ” and the toxicity [8] was “not toxic”.

For maltose binding protein [MBP], the “binding to chip saturated with scFv(HyHEL-10)-CAL” value [6] was “not”.

With troponin C the “complex formation with TAG-3 (fluorescent band)” value [7] was “observed; also recorded: binds well”.
